Results taken from EPA's ToxValDB 9.5 (doi:10.2903/j.efsa.2009.310r).
In brackets after ≈: the same amount, converted by molar mass. Several values for one entry are separate records, joined by “and”; a condition that tells them apart may be missing. Equal values may be shown once.

Experiments:
Anas platyrhynchos [1] = settings: oral, mortality; for LD50: acute, unspecified; for LC50: short-term, feed
Apis mellifera = settings: acute; dermal; mortality
Bibionidae = settings: chronic/long-term; duration: 28 days
Ceriodaphnia dubia = settings: chronic/long-term; duration: 7 days; reproduction
Colinus virginianus = settings: acute, oral, mortality; for LC50: diet
Coturnix coturnix = settings: acute, oral, mortality
Folsomia candida = settings: chronic/long-term; duration: 28 days
Hypoaspis aculeifer = settings: chronic/long-term; duration: 28 days
Lepomis macrochirus = settings: acute; duration: 96 hours; mortality
Phasianus sp. = settings: acute, oral, unspecified, mortality
Rattus norvegicus = settings: mortality
Anas platyrhynchos [2] = assay: LC10; higher = less toxic; settings: short-term; duration: 14 days; oral; feed; mortality

CNC(=O)Oc1cccc2c1OC(C)(C)C2 [Carbofuran]
LD50 (Anas platyrhynchos [1]; F): 0.86 mg/kg-day | LD50 (Anas platyrhynchos [1]): 0.76 mg/kg-day | LC50 (Anas platyrhynchos [1]; duration: 5 days): 10 mg/kg-day and 17 mg/kg-day | LC50 (Anas platyrhynchos [1]; duration: 14 days): 1.6 mg/kg-day | LD50 (Apis mellifera): 0.0357 µg/piece | NOEC (Bibionidae): 0.0032 mg/L | NOEC (Ceriodaphnia dubia): 0.00016 mg/L | LC50 (Colinus virginianus; duration: 5 days): 114 mg/kg-day | LC50 (Colinus virginianus; duration: 7 days): 20.8 mg/kg-day | LC50 (Colinus virginianus; duration: 14 days): 15.8 mg/kg-day | LD50 (Colinus virginianus; M/F): 8 mg/kg-day | LD50 (Coturnix coturnix; F): 3.5 mg/kg-day | LD50 (Coturnix coturnix; M): 4.9 mg/kg-day | NOEC (Folsomia candida): 0.21 mg/kg | NOEC (Hypoaspis aculeifer): 10.4 mg/kg | LC50 (Lepomis macrochirus): 0.18 µg/mL (≈ 0.814 µM) | LD50 (Phasianus sp.; F): 6.2 mg/kg-day | LD50 (Phasianus sp.; M): 4 mg/kg-day | LD50 (Rattus norvegicus; acute, oral): < 5.6 mg/kg-day | NOAEL (Rattus norvegicus; chronic): 0.1 mg/kg-day | LC50 (Tagia sp.; acute, duration: 14 days, mortality): > 50 mg/kg | NOEC (Tagia sp.; chronic/long-term, duration: 56 days): < 0.84 mg/kg | LC10 (Anas platyrhynchos [2]): 0.64 mg/kg-day
